Assay results from US10150737B2, “Compounds for controlling arthropods” (priority 2013, dated 2018).

Legend:
[1] = test system: Phaedon cochleariae; test: Phaedon cochleariae - spray test; assay type: in vivo; conditions: larvae on Chinese cabbage leaf discs, after 7 days
Experimental: (§1) Solvent: 78.0 parts by weight of acetone and 1.5 parts by weight of dimethylformamide
(§2) Emulsifier: alkylaryl polyglycol ether
(§3) To produce an appropriate active ingredient formulation, 1 part by weight of active ingredient is dissolved using the specified parts by weight of solvent and made up with water containing an emulsifier concentration of 1000 ppm until the desired concentration is attained. To produce further test concentrations, the preparation is diluted with emulsifier-containing water.
Discs of Chinese cabbage leaves (Brassica pekinensis) are sprayed with an active ingredient formulation of the desired concentration and, after drying, populated with larvae of the mustard beetle (Phaedon cochleariae).
After 7 days, efficacy in % is determined. 100% means that all the beetle larvae have been killed; 0% means that no beetle larvae have been killed.

[2] = test system: Tetranychus urticae; test: Tetranychus urticae - spray test, OP-resistant; assay type: in vivo; conditions: bean leaf discs, after 6 days
Experimental: as §1, §2, §3
Discs of bean leaves (Phaseolus vulgaris) infested by all stages of the greenhouse red spider mite (Tetranychus urticae) are sprayed with an active ingredient formulation of the desired concentration.
After 6 days, efficacy in % is determined. 100% means that all the spider mites have been killed; 0% means that none of the spider mites have been killed.

[3] = logP determination by HPLC on a reversed-phase column (C18); assay type: physicochemical; conditions: for log P: HPLC-MS; for logP^a): HPLC-MS method a); for logP: HPLC, C18 reversed phase, acetonitrile/water with formic acid, EEC Directive 79/831 Annex V.A8
[4] = test system: Spodoptera frugiperda; test: Spodoptera frugiperda - spray test; assay type: in vivo; conditions: caterpillars on maize leaf discs, after 7 days
Experimental: as §1, §2, §3
Leaf discs of maize (Zea mays) are sprayed with an active ingredient formulation of the desired concentration and, after drying, populated with caterpillars of the armyworm (Spodoptera frugiperda).
After 7 days, efficacy in % is determined. 100% means that all the caterpillars have been killed; 0% means that no caterpillars have been killed.

[5] = test system: Boophilus microplus; test: Boophilus microplus - injection test; assay type: in vivo; conditions: application rate 20 μg/animal; injection into engorged adult female ticks; after 7 days
Experimental: (§4) Solvent: dimethyl sulphoxide
To produce an appropriate active ingredient formulation, 10 mg of active ingredient are mixed with 0.5 ml of solvent and the concentrate is diluted with solvent to the desired concentration.
1 μl of the active ingredient solution is injected into the abdomen of 5 engorged adult female cattle ticks (Boophilus microplus). The animals are transferred into dishes and kept in a climate-controlled room.
Efficacy is assessed after 7 days by laying of fertile eggs. Eggs which are not visibly fertile are stored in a climate-controlled cabinet until the larvae hatch after about 42 days. An efficacy of 100% means that none of the ticks has laid any fertile eggs; 0% means that all the eggs are fertile.

[6] = test system: Ctenocephalides felis; test: Ctenocephalides felis - oral test; assay type: in vivo; conditions: application rate 100 ppm in citrated cattle blood; after 2 days
Experimental: as §4
For the purpose of producing an appropriate active ingredient formulation, 10 mg of active ingredient are mixed with 0.5 ml of dimethyl sulphoxide. Dilution with citrated cattle blood gives the desired concentration.
About 20 unfed adult cat fleas (Ctenocephalides felis) are placed into a chamber which is closed at the top and bottom with gauze. A metal cylinder whose bottom end is closed with parafilm is placed onto the chamber. The cylinder contains the blood/active ingredient preparation, which can be imbibed by the fleas through the parafilm membrane.
After 2 days, the kill in % is determined. 100% means that all of the fleas have been killed; 0% means that none of the fleas have been killed.

[7] = test system: Lucilia cuprina; test: Lucilia cuprina test; assay type: in vivo; conditions: application rate 100 ppm; L1 larvae; after 2 days
Experimental: as §4
To produce an appropriate active ingredient formulation, 10 mg of active ingredient are mixed with 0.5 ml of dimethyl sulphoxide, and the concentrate is diluted with water to the desired concentration.
About 20 L1 larvae of the Australian sheep blowfly (Lucilia cuprina) are transferred into a test vessel containing minced horsemeat and the active ingredient preparation of the desired concentration.
After 2 days, the kill in % is determined. 100% means that all the larvae have been killed; 0% means that none of the larvae have been killed.

[8] = reversed-phase column (C18), Table I-T3

| SMILES | efficacy ([1]; application rate 100 g/ha) | efficacy ([2]; application rate 100 g/ha) | log P [3, 8] | efficacy ([4]; application rate 100 g/ha) | logP^a) [3] | further results |
| --- | --- | --- | --- | --- | --- | --- |
| N#CC1(NC(=O)c2cc(-c3cnn(-c4c(Cl)cc(C(F)(F)F)cc4[N+](=O)[O-])c3)ccc2Cl)CC1 [I-T3-169] | 100% | 100% | 3.2 | 83% | – | – |
| N#CC1(NC(=O)c2cccc(-c3cnn(-c4c(Cl)cc(C(F)(C(F)(F)F)C(F)(F)F)cc4Cl)c3)c2F)CC1 [I-T3-22] | – | – | – | – | 4.1 | efficacy ([1]; application rate 500 g/ha): 100%; efficacy ([2]; application rate 500 g/ha): 100%; logP^a) [3, 8]: 4.1; efficacy ([4]; application rate 500 g/ha): 100% |
| CCS(=O)(=O)c1cc(C(F)(F)F)cc(Cl)c1-n1cc(-c2ccc(Cl)c(C(=O)NC3CC3)c2)cn1 [I-T3-178] | 100% | 100% | 3.2 | – | – | – |
| N#CC1(NC(=O)c2cc(-c3ccn(-c4c(Cl)cc(C(F)(C(F)(F)F)C(F)(F)F)cc4Cl)c3)cnc2Cl)CC1 [I-T46-5] | 100% | 100% | – | 100% | – | logP [3]: 4.4 |
| CCS(=O)(=O)c1cc(C(F)(F)F)cc(Cl)c1-n1cc(-c2ccc(Cl)c(C(=O)NC3(C#N)CC3)c2)cn1 [I-T3-183] | 100% | 100% | 3.1 | – | – | – |
| O=C(NCCC(F)(F)F)c1cc(-c2cnn(-c3ccc(C(F)(C(F)(F)F)C(F)(F)F)cc3Cl)c2)ccc1Cl [I-T3-33] | – | – | – | – | 4.7 | efficacy (laying of fertile eggs) [5]: 100%; logP^a) [3, 8]: 4.7; efficacy (kill) [6]: 100%; efficacy (kill) [7]: 100% |
| Cc1cc(C(F)(C(F)(F)F)C(F)(F)F)cc(C)c1-n1cc(-c2cc(C(=O)NC3CC3)c(F)cc2Cl)cn1 [I-T3-11] | – | – | – | – | 4.9 | efficacy (laying of fertile eggs) [5]: 100%; logP^a) [3, 8]: 4.9; efficacy (kill) [6]: 95% |
| CCS(=O)(=O)c1cc(C(F)(C(F)(F)F)C(F)(F)F)cc(S(=O)(=O)CC)c1-n1cc(-c2ccc(Cl)c(C(=O)NC3(C#N)CC3)c2)cn1 [I-T3-198] | 100% | – | 3.7 | 100% | – | – |
| N#CC1(NC(=O)c2cc(-c3cnn(-c4ncc(C(F)(F)F)cc4Cl)c3)ccc2Cl)CC1 [I-T3-59] | 100% | – | – | – | 3.1 | efficacy (laying of fertile eggs) [5]: 100%; logP^a) [3, 8]: 3.1; efficacy (kill) [6]: 100%; efficacy (kill) [7]: 100% |
| CN(C(=O)c1cc(-c2ccn(-c3c(Cl)cc(C(F)(C(F)(F)F)C(F)(F)F)cc3Cl)c2)cnc1Cl)C1CC1 [I-T46-3] | 100% | – | – | 100% | – | logP [3]: 5.0 |
| O=C(NC1CC1)c1cc(-c2ccn(-c3c(Cl)cc(C(F)(C(F)(F)F)C(F)(F)F)cc3Cl)c2)cnc1Cl [I-T46-4] | 100% | 100% | – | 100% | – | logP [3]: 4.5 |
| CCS(=O)(=O)c1cc(C(F)(F)F)cc(C#N)c1-n1cc(-c2ccc(Cl)c(C(=O)NC3(C#N)CC3)c2)cn1 [I-T3-190] | 100% | 100% | 2.9 | – | – | – |
| CCSc1cc(C(F)(C(F)(F)F)C(F)(F)F)cc(SCC)c1-n1cc(-c2ccc(Cl)c(C(=O)NC3(C#N)CC3)c2)cn1 [I-T3-191] | 100% | – | 4.7 | 100% | – | – |
| CN(C(=O)c1cc(-c2cnn(-c3c(Cl)cc(C(O)(C(F)(F)F)C(F)(F)F)cc3Cl)c2)cnc1Cl)C1(C#N)CC1 [I-T3-223] | 100% | 100% | 3.3 | – | – | – |
| O=C(NCC(F)(F)F)c1cc(-c2cnn(-c3ccc(C(F)(C(F)(F)F)C(F)(F)F)cc3Cl)c2)ccc1Cl [I-T3-32] | – | – | – | – | 4.7 | efficacy (laying of fertile eggs) [5]: 100%; logP^a) [3, 8]: 4.7; efficacy (kill) [6]: 100%; efficacy (kill) [7]: 100% |
| CCSc1cc(C(F)(C(F)(F)F)C(F)(F)F)cc(Cl)c1-n1cc(-c2ccc(Cl)c(C(=O)NC3(C#N)CC3)c2)cn1 [I-T3-192] | 100% | 100% | 4.5 | 100% | – | – |
| Cc1cc(C(F)(C(F)(F)F)C(F)(F)F)cc(C)c1-n1cc(-c2ccc(Cl)c(C(=O)NCC(=O)NCC(F)(F)F)c2)cn1 [I-T3-6] | 100% | – | – | – | 4.1 | efficacy (laying of fertile eggs) [5]: 100%; logP^a) [3, 8]: 4.1; efficacy (kill) [7]: 100% |
| Cc1cc(C(F)(C(F)(F)F)C(F)(F)F)cc(C)c1-n1cc(-c2cc(C(=O)NC3(C#N)CC3)ccc2F)cn1 [I-T3-19] | – | – | – | – | 4.3 | efficacy (laying of fertile eggs) [5]: 100%; efficacy ([1]; application rate 500 g/ha): 100%; logP^a) [3, 8]: 4.3; efficacy (kill) [6]: 95%; efficacy ([4]; application rate 500 g/ha): 100% |
| O=C(NC1CC1)c1cc(-c2cnn(-c3ncc(C(F)(F)F)cc3Cl)c2)ccc1Cl [I-T3-60] | – | – | – | – | 3.2 | efficacy (laying of fertile eggs) [5]: 100%; logP^a) [3, 8]: 3.2; efficacy (kill) [6]: 90%; efficacy (kill) [7]: 90% |
| CCS(=O)(=O)c1cc(C(F)(F)F)cc(C#N)c1-n1cc(-c2ccc(Cl)c(C(=O)NC3CC3)c2)cn1 [I-T3-180] | 100% | 100% | 2.8 | – | – | – |
| N#CC1(NC(=O)c2cc(-c3cnn(-c4c(Cl)cc(C(O)(C(F)(F)F)C(F)(F)F)cc4Cl)c3)cnc2Cl)CC1 [I-T3-222] | 100% | 100% | 3.0 | – | – | – |
| CC[S+]([O-])c1cc(C(F)(C(F)(F)F)C(F)(F)F)cc(Cl)c1-n1cc(-c2ccc(Cl)c(C(=O)NC3(C#N)CC3)c2)cn1 (centres unmarked) [I-T3-195] | 100% | 90% | 3.8 | – | – | – |
| O=C(NC1CC1)c1cc(-c2cnn(-c3ncc(C(F)(C(F)(F)F)C(F)(F)F)cc3Cl)c2)ccc1Cl [I-T3-152] | 100% | – | 4.1 | 100% | – | logP^a) ([3]; reversed-phase column (C18)): 4.1 |
| CCSc1cc(C(F)(F)F)cc(Cl)c1-n1cc(-c2ccc(Cl)c(C(=O)NC3CC3)c2)cn1 [I-T3-172] | 100% | 90% | 3.9 | – | – | – |
| CC[S+]([O-])c1cc(C(F)(F)F)cc(C#N)c1-n1cc(-c2ccc(Cl)c(C(=O)NC3CC3)c2)cn1 (centres unmarked) [I-T3-181] | 100% | 100% | 2.7 | – | – | – |
| CCSc1cc(C(F)(F)F)cc(C#N)c1-n1cc(-c2ccc(Cl)c(C(=O)NC3(C#N)CC3)c2)cn1 [I-T3-177] | 100% | 100% | 3.4 | 83% | – | – |
| Cc1cc(C(F)(C(F)(F)F)C(F)(F)F)cc(C(F)(F)F)c1-n1cc(-c2cnc(Cl)c(C(=O)NCC3(C#N)CC3)c2)cn1 [I-T3-197] | 100% | 100% | 4.0 | 100% | – | – |
| O=C(NC1CC1)c1cc(-c2cnn(-c3c(Cl)cc(C(O)(C(F)(F)F)C(F)(F)F)cc3Cl)c2)cnc1Cl [I-T3-221] | 100% | 100% | 3.0 | – | – | – |
| Cc1cc(C(F)(C(F)(F)F)C(F)(F)F)cc(C)c1-c1ccn(-c2ccc(Cl)c(C(=O)NC3(C#N)CC3)c2)n1 [I-T2-2] | 100% | – | – | 100% | 4.8 | efficacy (laying of fertile eggs) [5]: 100% |
| CN(C(=O)c1cc(-c2ccn(-c3c(Cl)cc(C(F)(C(F)(F)F)C(F)(F)F)cc3Cl)c2)cnc1Cl)C1(C#N)CC1 [I-T46-6] | 100% | 100% | – | 100% | – | logP [3]: 4.8 |
